In patent US7256199B1, “Pyrimidone derivatives” (Mitsubishi Chemical Corporation, priority 1998, dated 2007):
Structures can show the parent of a compound that is named as a salt.

Biological target: T1, bovine cerebral TPK1 (Bos taurus, UniProt A0A3Q1MT31)
T1 construct: Against P-GS1 Phosphorylation by Bovine Cerebral TPK1; from tissue; host or cells: bovine cerebrum (brain)
Assay: Inhibitory activity against P-GS1 phosphorylation by bovine cerebral TPK1
Format: biochemical
Conditions: 41.7 μM [γ-32P] ATP, 25° C., 2 hours, pH 6.5
Protocol: Test Example: Inhibitory Activity of the Medicament of the Present Invention Against P-GS1 Phosphorylation by Bovine Cerebral TPK1
A mixture containing 100 mM MES-sodium hydroxide (pH 6.5), 1 mM magnesium acetate, 0.5 mM EGTA, 5 mM β-mercaptoethanol, 0.02% Tween 20, 10% glycerol, 12 μg/ml P-GS1, 41.7 μM [γ-^32P] ATP (68 kBq/ml), bovine cerebral TPK1 and a compound shown in Table (a final mixture contained 1.7% DMSO deriving from a solution of a test compound prepared in the presence of 10% DMSO) was used as a reaction system. The phosphorylation was started by adding ATP, and the reaction was conducted at 25° C. for 2 hours, and then stopped by adding 21% perchloric acid on ice cooling. The reaction mixture was centrifuged at 12,000 rpm for 5 minutes and adsorbed on P81 paper (Whatmann), and then the paper was washed four times with 75 mM phosphoric acid, three times with water and once with acetone. The paper was dried, and the residual radioactivity was measured using a liquid scintillation counter.

T1 sequence (A0A3Q1MT31 1-419): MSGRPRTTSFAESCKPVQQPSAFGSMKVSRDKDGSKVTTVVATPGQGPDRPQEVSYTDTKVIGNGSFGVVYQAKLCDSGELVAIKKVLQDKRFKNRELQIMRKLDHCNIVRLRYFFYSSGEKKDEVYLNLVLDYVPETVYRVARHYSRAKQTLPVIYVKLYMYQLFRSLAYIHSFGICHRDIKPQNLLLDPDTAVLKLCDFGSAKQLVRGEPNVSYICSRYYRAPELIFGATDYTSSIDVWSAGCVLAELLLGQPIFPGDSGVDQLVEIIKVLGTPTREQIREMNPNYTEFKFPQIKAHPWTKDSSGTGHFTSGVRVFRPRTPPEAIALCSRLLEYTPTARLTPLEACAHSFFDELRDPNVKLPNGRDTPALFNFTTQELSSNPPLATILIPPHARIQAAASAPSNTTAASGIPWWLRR

Compound | IC50 [nM]
2-(bromophenylamino)-6-(4-pyridyl)pyrimidin-4-one [Example 91] | 1600
2-(butoxyphenylamino)-6-(4-pyridyl)pyrimidin-4-one [Example 90] | 6300
2-(ethylphenylamino)-6-(4-pyridyl)pyrimidin-4-one [Example 89] | 2300
O=c1cc(-c2ccncc2)nc(-c2cccnc2)[nH]1 [Example 1, 2-(3-pyridyl)-6-(4-pyridyl)pyrimidin-4-one] | 2300
Cc1nc(-c2ccncc2)cc(=O)[nH]1 [Example 2, 2-methyl-6-(4-pyridyl)pyrimidin-4-one] | 3000
CC(C)c1nc(-c2ccncc2)cc(=O)[nH]1 [Example 5, 2-isopropyl-6-(4-pyridyl)pyrimidin-4-one] | 2100
CCCCc1nc(-c2ccncc2)cc(=O)[nH]1 [Example 6, 2-butyl-6-(4-pyridyl)pyrimidin-4-one] | 1300
CC(C)Cc1nc(-c2ccncc2)cc(=O)[nH]1 [Example 7, 2-isobutyl-6-(4-pyridyl)pyrimidin-4-one] | 2400
O=c1cc(-c2ccncc2)nc(-c2ccccc2)[nH]1 [Example 12, 2-phenyl-6-(4-pyridyl)pyrimidin-4-one] | 1800
Cc1ccccc1-c1nc(-c2ccncc2)cc(=O)[nH]1 [Example 14, 6-(4-pyridyl)-2-(2-tolyl)pyrimidin-4-one] | 4000
Cc1cccc(-c2nc(-c3ccncc3)cc(=O)[nH]2)c1 [Example 15, 6-(4-pyridyl)-2-(3-tolyl)pyrimidin-4-one] | 2200
Cc1ccc(-c2nc(-c3ccncc3)cc(=O)[nH]2)cc1 [Example 16, 6-(4-pyridyl)-2-(4-tolyl)pyrimidin-4-one] | 4800
O=c1cc(-c2ccncc2)nc(-c2cccc(Br)c2)[nH]1 [Example 19, 2-(3-bromophenyl)-6-(4-pyridyl)pyrimidin-4-one] | 8700
N#Cc1cccc(-c2nc(-c3ccncc3)cc(=O)[nH]2)c1 [Example 22, 2-(3-cyanophenyl)-6-(4-pyridyl)pyrimidin-4-one] | 6200
O=c1cc(-c2ccncc2)nc(-c2ccc([N+](=O)[O-])cc2)[nH]1 [Example 24, 2-(4-nitrophenyl)-6-(4-pyridyl)pyrimidin-4-one] | 5300
CN(C)Cc1cccc(-c2nc(-c3ccncc3)cc(=O)[nH]2)c1 [Example 27, 2-(3-(dimethylaminomethyl)phenyl)-6-(4-pyridyl)pyrimidin-4-one dihydrochloride] | 3300
O=c1cc(-c2ccncc2)nc(Cc2ccccc2)[nH]1 [Example 28, 2-benzyl-6-(4-pyridyl)pyrimidin-4-one] | 1300
Cc1ccccc1Cc1nc(-c2ccncc2)cc(=O)[nH]1 [Example 29, 2-(2-methylbenzyl)-6-(4-pyridyl)pyrimidin-4-one] | 1400
Cc1ccc(Cc2nc(-c3ccncc3)cc(=O)[nH]2)cc1 [Example 31, 2-(4-methylbenzyl)-6-(4-pyridyl)pyrimidin-4-one] | 2900
O=c1cc(-c2ccncc2)nc(Cc2ccc(Cl)cc2)[nH]1 [Example 33, 2-(4-chlorobenzyl)-6-(4-pyridyl)pyrimidin-4-one] | 5500
O=c1cc(-c2ccncc2)nc(CCc2ccccc2)[nH]1 [Example 35, 2-(2-phenylethyl)-6-(4-pyridyl)pyrimidin-4-one] | 8900
O=c1cc(-c2ccncc2)nc(CCCc2ccccc2)[nH]1 [Example 36, 2-(3-phenylpropyl)-6-(4-pyridyl)pyrimidin-4-one] | 500

Compound | IC50 [nM]
O=c1cc(-c2ccncc2)nc(-c2ccccn2)[nH]1 [Example 37, 2-(2-pyridyl)-6-(4-pyridyl)pyrimidin-4-one] | 3800
O=c1cc(-c2ccncc2)nc(-c2ccncc2)[nH]1 [Example 38, 2,6-di(4-pyridyl)pyrimidin-4-one] | 1800
O=c1cc(-c2ccncc2)nc(Cc2cccs2)[nH]1 [Example 42, 6-(4-pyridyl)-2-(2-thienylmethyl)pyrimidin-4-one] | 7600
Nc1nc(-c2ccncc2)cc(=O)[nH]1 [Example 43, 2-amino-6-(4-pyridyl)pyrimidin-4-one] | 5700
CN(C)c1nc(-c2ccncc2)cc(=O)[nH]1 [Example 44, 2-dimethylamino-6-(4-pyridyl)pyrimidin-4-one] | 3700
O=c1cc(-c2ccncc2)nc(Cc2ccccc2Cl)[nH]1 [Example 68, 2-(2-chlorobenzyl)-6-(4-pyridyl)pyrimidin-4-one] | 1300
O=c1cc(-c2ccncc2)nc(N2CCCCC2)[nH]1 [Example 69, 2-(1-piperidino)-6-(4-pyridyl)pyrimidin-4-one] | 2500
CCN(CC)c1nc(-c2ccncc2)cc(=O)[nH]1 [Example 71, 2-(diethylamino)-6-(4-pyridyl)pyrimidin-4-one] | 1100
CN(Cc1ccccc1)c1nc(-c2ccncc2)cc(=O)[nH]1 [Example 79, 2-(N-benzyl-N-methylamino)-6-(4-pyridyl)pyrimidin-4-one] | 2800
O=c1cc(-c2ccncc2)nc(NCc2ccccc2)[nH]1 [Example 80, 2-benzylamino-6-(4-pyridyl)pyrimidin-4-one] | 1100
O=c1cc(-c2ccncc2)nc(N2CCOCC2)[nH]1 [Example 82, 2-(4-morpholinyl)-6-(4-pyridyl)pyrimidin-4-one] | 4300
O=c1cc(-c2ccncc2)nc(C2CCCCC2)[nH]1 [Example 83, 2-cyclohexyl-6-(4-pyridyl)pyrimidin-4-one] | 2800
CC(C)CN(C)c1nc(-c2ccncc2)cc(=O)[nH]1 [Example 84, 2-(N-isobutyl-N-methylamino)-6-(4-pyridyl)pyrimidin-4-one] | 1100
CCCN(CCC)c1nc(-c2ccncc2)cc(=O)[nH]1 [Example 85, 2-dipropylamino-6-(4-pyridyl)pyrimidin-4-one] | 960
O=c1cc(-c2ccncc2)nc(NCCCO)[nH]1 [Example 86, 2-(3-hydroxypropylamino)-6-(4-pyridyl)pyrimidin-4-one] | 10000
O=c1cc(-c2ccncc2)nc(N2CCCC2)[nH]1 [Example 87, 2-(1-pyrrolidinyl)-6-(4-pyridyl)pyrimidin-4-one] | 2600
O=c1cc(-c2ccncc2)nc(NCC2CCCCC2)[nH]1 [Example 88, 2-cyclohexylmethylamino-6-(4-pyridyl)pyrimidin-4-one] | 1400
O=c1cc(-c2ccncc2)nc(Nc2ccccc2)[nH]1 [Example 92, 2-phenylamino-6-(4-pyridyl)pyrimidin-4-one] | 1600
COc1cccc(Nc2nc(-c3ccncc3)cc(=O)[nH]2)c1 [Example 93, 2-(3-methoxyphenylamino)-6-(4-pyridyl)pyrimidin-4-one] | 1800
O=c1cc(-c2ccncc2)nc(Cc2cccc(-c3ccccc3)c2)[nH]1 [Example 96, 2-(3-phenylbenzyl)-6-(4-pyridyl)pyrimidin-4-one] | 770
O=c1cc(-c2ccncc2)nc(-c2ccc(O)cc2)[nH]1 [Example 97, 2-(4-hydroxyphenyl)-6-(4-pyridyl)pyrimidin-4-one] | 1700
